Assay results published in PMC6269693, “Synthesis and Biological Evaluation of RGD-Conjugated MEK1/2 Kinase Inhibitors for Integrin-Targeted Cancer Therapy” (Molecules, 2013).
Where two headings read alike, the source gives them in different places.

Legend:
[1] = test system: p-ERK1/2 in melanoma A375 cells; assay: Western blotting of p-ERK1/2 in A375 cell lysates; type: cell-based; conditions: 10 μM, 2 h
Description: To evaluate the expression levels of ERK singal pathway after treated with conjugates, A375 cells were treated with compounds for 2 h respectively. Confluent cells were washed with ice-cold phosphate-buffered saline (PBS), and treated with lysis buffer (Beyotime Institute of Biotechnology, Suzhou, China) on ice for 1 h. Then the lysates were collected by scraping from the plates and then centrifuged at 13,000 rpm at 4 °C for 15 min. The protein concentration was quantitated using a Pierce BCA Protein Assay Kit (Thermo Scientific, Rockford, IL, USA) ona FlexStation 3 Benchtop Multi-Mode Microplate Reader at 562 nm (Molecular Devices). An equal amount of proteins (10 μg per lane) for each sample were analyzed by SDS-PAGE on a 10% gel. After electro-blotting to PVDF membrane (Millipore, Billerica, MA, USA) at 400 mA for 1 h, membranes were blocked with 5% nonfat dry milk for 1 h at room temperature. Membrane were washed with 0.1% PBST three times and then incubated with primary antibodies overnight at 4 °C. Antibodies against pERK and ERK (Cell Signaling Technology, Inc., Danvers, MA, USA) were utilized as the primary antibodies. […] Finally, protein products were analyzedby Image Lab^TM software(ChemiDoc^TM XRS System, BIO-RAD, Hercules, CA, USA) with. […]

[2] = molecular target: inactive MEK1 kinase (Homo sapiens, UniProt Q02750); assay: HTRF phosphor-MEK1 assay (BRAF-MEK1 assay); type: biochemical; conditions: for BRAF-MEK1 assay (%) 0.01μM / BRAF-MEK1 assay (%) 0.1 μM / BRAF-MEK1 assay (%) 1 μM: inhibition of phosphorylation of inactive MEK1, mean of three ± SD
Sequence of inactive MEK1 kinase (Q02750 whole entry): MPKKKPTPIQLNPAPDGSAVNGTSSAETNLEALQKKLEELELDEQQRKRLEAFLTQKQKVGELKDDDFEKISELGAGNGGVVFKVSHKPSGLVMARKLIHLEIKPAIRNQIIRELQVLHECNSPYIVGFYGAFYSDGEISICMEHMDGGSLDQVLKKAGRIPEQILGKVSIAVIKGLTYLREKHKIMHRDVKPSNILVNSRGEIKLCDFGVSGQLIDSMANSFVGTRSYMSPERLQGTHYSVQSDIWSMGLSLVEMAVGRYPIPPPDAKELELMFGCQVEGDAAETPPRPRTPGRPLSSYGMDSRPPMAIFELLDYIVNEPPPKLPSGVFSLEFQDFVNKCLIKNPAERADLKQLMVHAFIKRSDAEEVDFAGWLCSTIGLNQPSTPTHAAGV
Description: (§1) Phosphorylated MEK1 was determined quantitatively by formation of a complex with specific Eu-labeled anti-phospho p44/42 MAPK (Thr202/Tyr204) antibody and anti-GST-XL665.After 3 h, time-resolved fluorescence was read using a FlexStation 3 plate reader (Molecular Devices, Sunnyvale, CA, USA). […] The curve-fitting software GraphPad Prism 4.0 was used to generate the curves and determine the IC50 values. […] The calculation method of HTRF ratio was the same with that in HTRF phosphor-MEK1 assay.

[3] = molecular target: T1, active MEK1 kinase (Homo sapiens, UniProt Q02750); assay: HTRF phosphor-ERK2 assay (MEK1-ERK2 assay); type: biochemical; conditions: inhibition of active MEK1 phosphorylating inactive ERK2, mean of three ± SD
T1 construct: purchased Carna Biosciences
T1 sequence (Q02750 whole entry): as above
Description: as §1

[4] = test system: U87 glioblastoma cells; assay: In vitro anti-proliferation assay by the SRB method, U87; type: cell-based, human
Description: (§2) A375, U87, A549 cell line, which were obtained from the National Platform of Experimental Cell Resources for Sci-Tech (Beijing, China), were cultured in Dulbecco’s modified Eagle’s medium (DMEM; Hyclone, Logan, UT, USA), supplemented with 10% heat-inactivated FBS (Hyclone), 100 U/mL penicillin, and 100 μg/mL streptomycin (Wako Pure Chemical Industries, Ltd., Osaka, Japan).
(§3) The cytotoxicity of the RGD-MKE1 conjugates on A375 melanoma cells, ERK signal pathway hyper-activated cell line, was studied in vitro by using an SRB assay. A375 cells (4.5 × 10^3) or U87 cells (5.0 × 10^3) were plated in each well of a 96-well tissue culture plate. Medium supplemented with 10% FBS was added, and cells were allowed to adhere for 24h. […] Then the medium was removed from the 96-well plate, and 10% ice-cold trichloroacetic acid (TCA, 200 μL) was added. The plate was kept at 4 for one hour after which was washed five times with deionized water, then stained with Sulforhodamine B (SRB, 100 μL, Sigma, St. Louis, MO, USA) before air drying. After washing with 1% acetic acid, the bound dye was solubilized with Tris base A (Sigma) and 100 μL of each sample were transferred into a 96-well plate, and then absorbance was read in a 96-well plate reader at 540 nm.Inhibitory ratio (%) = [(ODcontrol − ODtreated)/(ODcontrol)] × 100%.

[5] = test system: melanoma A375 cells; conditions: for IC50: 72 h
Description: as §2, §3

[6] = test system: melanoma A375 cells; assay: cells; conditions: Homo sapiens, A-375, 72 h
Description: as §2, §3

Row | Compound | BRAF-MEK1 assay (%) 0.01μM [2] [%] | BRAF-MEK1 assay (%) 0.1 μM [2] [%] | BRAF-MEK1 assay (%) 1 μM [2] [%] | MEK1-ERK2 assay (%) 1 μM [3] [%] | MEK1-ERK2 assay (%) 10 μM [3] [%] | further results
1 | O=C(O)CCC(=O)NCCCCONC(=O)c1ccc(F)c(F)c1Nc1ccc(I)cc1F [Compound 8c, 4-((4-((3,4-Difluoro-2-((2-fluoro-4-iodophenyl)amino)benzamido)oxy)butyl)amino)-4-oxobutanoic acid] |  |  |  |  |  | melting point: 120.9 to 121.9 °C
2 | c(RGDyK) [cRGD peptides, reference compound] |  |  |  |  |  | inhibition of the phosphorylation of ERK1/2 protein [1]: no inhibitory activity
3 | N=C(N)NCCC[C@@H]1NC(=O)[C@H](CCCCNC(=O)CCC(=O)NCCCONC(=O)c2ccc(F)c(F)c2Nc2ccc(I)cc2F)NC(=O)[C@@H](Cc2ccc(O)cc2)NC(=O)[C@H](CC(=O)O)NC(=O)CNC1=O [Compound 9b] | 6.7 ± 8.5 | 58.5 ± 8.5 | 77.6 ± 7.5 | 69.9 ± 3.2 | 93.5 ± 2.2 | IC50 [2]: 0.0479 µM; U87 cell-growth inhibition ([4]; 10 µM, SRB method): 21.3%; inhibition of the phosphorylation of ERK1/2 protein [1]: up to 90%; IC50 [5]: 2.1 µM
4 | NCCOCCONC(=O)c1ccc(F)c(F)c1Nc1ccc(I)cc1F [Compound 7e, N-(2-(2-aminoethoxy)ethoxy)-3,4-difluoro-2-((2-fluoro-4-iodophenyl)amino)benzamide] |  |  |  |  |  | melting point: 197.5 to 198.5 °C
5 | O=C(O)CCC(=O)OC[C@H](O)CONC(=O)c1ccc(F)c(F)c1Nc1ccc(I)cc1F [Compound 11, (S)-4-(3-((3,4-difluoro-2-((2-fluoro-4-iodophenyl)amino)benzamido)oxy)-2-hydroxypropoxy)-4-oxobutanoic Acid] |  |  |  |  |  | fold loss of antitumor efficacy compared to 13 ([5]; A375 IC50 vs 13): ~10 fold; IC50 ([6]; read-out: A375 proliferation assay IC50): 0.23 µM
6 | N=C(N)NCCC[C@@H]1NC(=O)[C@H](CCCCNC(=O)CCC(=O)NCCONC(=O)c2ccc(F)c(F)c2Nc2ccc(I)cc2F)NC(=O)[C@@H](Cc2ccc(O)cc2)NC(=O)[C@H](CC(=O)O)NC(=O)CNC1=O [Compound 9a] | 0.3 ± 0.0 | 30.0 ± 4.7 | 74.2 ± 7.2 | 66.5 ± 7.7 | 88.4 ± 1.4 | IC50 [5]: 4.4 µM
7 | O=C(NOC[C@H](O)CO)c1ccc(F)c(F)c1Nc1ccc(I)cc1F [PD0325901, reference compound] |  |  |  |  |  | inhibition at 1 µM ([4]; Homo sapiens, U-87 MG, high concentrations (>1 µM), concentration-independent, 72 h, read-out: inhibitory activity in U87 cells): ~50%; IC50 ([6]; read-out: A375 cell IC50): 0.00045 µM
8 | O=C(O)CCC(=O)NCCCONC(=O)c1ccc(F)c(F)c1Nc1ccc(I)cc1F [Compound 8b, 4-((3-((3,4-Difluoro-2-((2-fluoro-4-iodophenyl)amino)benzamido)oxy)propyl)amino)-4-oxobutanoic acid] | 12.5 ± 3.2 | 39.6 ± 9.3 | 57.5 ± 1.7 | 29.1 ± 12.0 | 83.4 ± 1.2 | IC50 ([6]; read-out: A375 cell IC50): 14.2 µM
